Like-named read-outs stand apart in the source and are kept apart here.
Legend:
Test in all cases: biochemical
Assay type in all cases: binding
[1] = target: cellular kinases of SH-SY5Y cells (Homo sapiens, UniProt P27448); details: 2µM; SH-SY5Y cells; Labeling Site Lys1; EVAIKIIDKTQLNPTSLQK; read-out: KiNativ in-cell binding, % Inhibition, MARK3
Source text: (§1) As KINOMEscan is an in vitro assay, and as different cell types have variable kinase expression profiles we sought to determine the kinase binding profile in our SH-SY5Y TFEB-relocalization cell model. […] Bound kinases were pulled down and analyzed by mass spectrometry to determine the in situ kinase binding profile for each compound.

[2] = target: cellular kinases of SH-SY5Y cells (Homo sapiens, UniProt Q16584); details: 2µM; SH-SY5Y cells; labeling site Lys2; peptide DLKSNNILLLQPIESDDMEHK
Source text: as §1

[3] = target: cellular kinases of SH-SY5Y cells (Homo sapiens, UniProt P42345); details: 2µM; SH-SY5Y cells; Labeling Site ATP; IQSIAPSLQVITSKQRPR; read-out: KiNativ in-cell binding, % Inhibition, MTOR
Source text: as §1

[4] = target: T1, cellular kinases of SH-SY5Y cells (Homo sapiens, UniProt P43403); details: 2µM; SH-SY5Y cells; Labeling Site Activation Loop; SAGKWPLK; read-out: KiNativ in-cell binding, % Inhibition, ZAP70
T1 construct: endogenous in cells; host or cells: SH-SY5Y
Source text: as §1

[5] = target: T2, cellular kinases of SH-SY5Y cells (Homo sapiens, UniProt P51957); details: 2µM; SH-SY5Y cells; Labeling Site Lys2; DLKTQNVFLTR; read-out: KiNativ in-cell binding, % Inhibition, NEK4
T2 construct: endogenous in cells; host or cells: SH-SY5Y
Source text: as §1

[6] = target: cellular kinases of SH-SY5Y cells (Homo sapiens, UniProt O43318); details: 2µM; SH-SY5Y cells; Labeling Site Lys2; DLKPPNLLLVAGGTVLK; read-out: KiNativ in-cell binding, % Inhibition, MAP3K7
Source text: as §1

[7] = target: cellular kinases of SH-SY5Y cells (Homo sapiens, UniProt P48736); details: 2µM; SH-SY5Y cells; Labeling Site ATP; KKPLWLEFK; read-out: KiNativ in-cell binding, % Inhibition, PIK3CG
Source text: as §1

[8] = target: T3, cellular kinases of SH-SY5Y cells (Homo sapiens, UniProt Q07912); details: 2µM, SH-SY5Y cells, read-out: KiNativ in-cell binding, % Inhibition, TNK2/ACK
T3 construct: endogenous in cells; host or cells: SH-SY5Y
T3 sequence (Q07912 whole entry): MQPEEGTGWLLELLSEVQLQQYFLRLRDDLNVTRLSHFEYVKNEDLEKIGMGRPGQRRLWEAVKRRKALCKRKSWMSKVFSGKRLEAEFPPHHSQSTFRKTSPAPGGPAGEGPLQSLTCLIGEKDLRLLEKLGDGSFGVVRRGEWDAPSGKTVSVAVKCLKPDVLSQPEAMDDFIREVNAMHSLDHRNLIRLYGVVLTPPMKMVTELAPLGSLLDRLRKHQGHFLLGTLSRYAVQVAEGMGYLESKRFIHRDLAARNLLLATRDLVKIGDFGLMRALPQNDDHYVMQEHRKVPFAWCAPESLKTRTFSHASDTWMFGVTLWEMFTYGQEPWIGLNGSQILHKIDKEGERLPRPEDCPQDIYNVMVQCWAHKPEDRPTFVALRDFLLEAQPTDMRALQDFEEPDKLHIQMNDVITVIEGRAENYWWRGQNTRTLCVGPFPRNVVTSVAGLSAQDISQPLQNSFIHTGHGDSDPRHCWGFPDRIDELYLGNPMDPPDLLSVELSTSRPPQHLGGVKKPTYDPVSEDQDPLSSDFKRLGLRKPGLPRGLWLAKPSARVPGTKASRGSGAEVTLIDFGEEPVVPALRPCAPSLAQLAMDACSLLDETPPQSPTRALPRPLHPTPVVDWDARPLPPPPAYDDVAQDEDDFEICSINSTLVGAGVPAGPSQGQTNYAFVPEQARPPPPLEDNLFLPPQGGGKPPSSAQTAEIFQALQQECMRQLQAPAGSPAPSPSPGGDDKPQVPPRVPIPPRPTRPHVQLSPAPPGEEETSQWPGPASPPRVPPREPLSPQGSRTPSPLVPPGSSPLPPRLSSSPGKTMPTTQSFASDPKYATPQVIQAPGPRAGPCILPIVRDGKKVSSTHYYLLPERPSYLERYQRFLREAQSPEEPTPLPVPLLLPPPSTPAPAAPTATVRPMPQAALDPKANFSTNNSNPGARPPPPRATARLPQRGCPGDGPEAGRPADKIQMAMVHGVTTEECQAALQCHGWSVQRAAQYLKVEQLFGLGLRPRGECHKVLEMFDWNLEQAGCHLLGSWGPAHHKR
Source text: as §1

[9] = target: cellular kinases of SH-SY5Y cells (Homo sapiens, UniProt Q96L34); details: 2µM, SH-SY5Y cells, read-out: KiNativ in-cell binding, % Inhibition, MARK4
Source text: as §1

[10] = target: cellular kinases of SH-SY5Y cells (Homo sapiens, UniProt O75716); details: 2µM; SH-SY5Y cells; Labeling Site Lys2; DLKPTNILLGDEGQPVLMDLGSMNQACIHVEGSR; read-out: KiNativ in-cell binding, % Inhibition, STK16
Source text: as §1

[11] = target: T4, cellular kinases of SH-SY5Y cells (Homo sapiens, UniProt Q14164); details: 2µM; SH-SY5Y cells; Labeling Site Lys1; SGELVAVKVFNTTSYLRPR; read-out: KiNativ in-cell binding, % Inhibition, IKBKE/IKKe
T4 construct: endogenous in cells; host or cells: SH-SY5Y
Source text: as §1

[12] = target: cellular kinases of SH-SY5Y cells (Homo sapiens, UniProt Q96Q15); details: 2µM, SH-SY5Y cells, Labeling Site ATP, read-out: KiNativ in-cell binding, % Inhibition, SMG1
Sequence of cellular kinases of SH-SY5Y cells (Homo sapiens, UniProt Q96Q15) (Q96Q15 whole entry): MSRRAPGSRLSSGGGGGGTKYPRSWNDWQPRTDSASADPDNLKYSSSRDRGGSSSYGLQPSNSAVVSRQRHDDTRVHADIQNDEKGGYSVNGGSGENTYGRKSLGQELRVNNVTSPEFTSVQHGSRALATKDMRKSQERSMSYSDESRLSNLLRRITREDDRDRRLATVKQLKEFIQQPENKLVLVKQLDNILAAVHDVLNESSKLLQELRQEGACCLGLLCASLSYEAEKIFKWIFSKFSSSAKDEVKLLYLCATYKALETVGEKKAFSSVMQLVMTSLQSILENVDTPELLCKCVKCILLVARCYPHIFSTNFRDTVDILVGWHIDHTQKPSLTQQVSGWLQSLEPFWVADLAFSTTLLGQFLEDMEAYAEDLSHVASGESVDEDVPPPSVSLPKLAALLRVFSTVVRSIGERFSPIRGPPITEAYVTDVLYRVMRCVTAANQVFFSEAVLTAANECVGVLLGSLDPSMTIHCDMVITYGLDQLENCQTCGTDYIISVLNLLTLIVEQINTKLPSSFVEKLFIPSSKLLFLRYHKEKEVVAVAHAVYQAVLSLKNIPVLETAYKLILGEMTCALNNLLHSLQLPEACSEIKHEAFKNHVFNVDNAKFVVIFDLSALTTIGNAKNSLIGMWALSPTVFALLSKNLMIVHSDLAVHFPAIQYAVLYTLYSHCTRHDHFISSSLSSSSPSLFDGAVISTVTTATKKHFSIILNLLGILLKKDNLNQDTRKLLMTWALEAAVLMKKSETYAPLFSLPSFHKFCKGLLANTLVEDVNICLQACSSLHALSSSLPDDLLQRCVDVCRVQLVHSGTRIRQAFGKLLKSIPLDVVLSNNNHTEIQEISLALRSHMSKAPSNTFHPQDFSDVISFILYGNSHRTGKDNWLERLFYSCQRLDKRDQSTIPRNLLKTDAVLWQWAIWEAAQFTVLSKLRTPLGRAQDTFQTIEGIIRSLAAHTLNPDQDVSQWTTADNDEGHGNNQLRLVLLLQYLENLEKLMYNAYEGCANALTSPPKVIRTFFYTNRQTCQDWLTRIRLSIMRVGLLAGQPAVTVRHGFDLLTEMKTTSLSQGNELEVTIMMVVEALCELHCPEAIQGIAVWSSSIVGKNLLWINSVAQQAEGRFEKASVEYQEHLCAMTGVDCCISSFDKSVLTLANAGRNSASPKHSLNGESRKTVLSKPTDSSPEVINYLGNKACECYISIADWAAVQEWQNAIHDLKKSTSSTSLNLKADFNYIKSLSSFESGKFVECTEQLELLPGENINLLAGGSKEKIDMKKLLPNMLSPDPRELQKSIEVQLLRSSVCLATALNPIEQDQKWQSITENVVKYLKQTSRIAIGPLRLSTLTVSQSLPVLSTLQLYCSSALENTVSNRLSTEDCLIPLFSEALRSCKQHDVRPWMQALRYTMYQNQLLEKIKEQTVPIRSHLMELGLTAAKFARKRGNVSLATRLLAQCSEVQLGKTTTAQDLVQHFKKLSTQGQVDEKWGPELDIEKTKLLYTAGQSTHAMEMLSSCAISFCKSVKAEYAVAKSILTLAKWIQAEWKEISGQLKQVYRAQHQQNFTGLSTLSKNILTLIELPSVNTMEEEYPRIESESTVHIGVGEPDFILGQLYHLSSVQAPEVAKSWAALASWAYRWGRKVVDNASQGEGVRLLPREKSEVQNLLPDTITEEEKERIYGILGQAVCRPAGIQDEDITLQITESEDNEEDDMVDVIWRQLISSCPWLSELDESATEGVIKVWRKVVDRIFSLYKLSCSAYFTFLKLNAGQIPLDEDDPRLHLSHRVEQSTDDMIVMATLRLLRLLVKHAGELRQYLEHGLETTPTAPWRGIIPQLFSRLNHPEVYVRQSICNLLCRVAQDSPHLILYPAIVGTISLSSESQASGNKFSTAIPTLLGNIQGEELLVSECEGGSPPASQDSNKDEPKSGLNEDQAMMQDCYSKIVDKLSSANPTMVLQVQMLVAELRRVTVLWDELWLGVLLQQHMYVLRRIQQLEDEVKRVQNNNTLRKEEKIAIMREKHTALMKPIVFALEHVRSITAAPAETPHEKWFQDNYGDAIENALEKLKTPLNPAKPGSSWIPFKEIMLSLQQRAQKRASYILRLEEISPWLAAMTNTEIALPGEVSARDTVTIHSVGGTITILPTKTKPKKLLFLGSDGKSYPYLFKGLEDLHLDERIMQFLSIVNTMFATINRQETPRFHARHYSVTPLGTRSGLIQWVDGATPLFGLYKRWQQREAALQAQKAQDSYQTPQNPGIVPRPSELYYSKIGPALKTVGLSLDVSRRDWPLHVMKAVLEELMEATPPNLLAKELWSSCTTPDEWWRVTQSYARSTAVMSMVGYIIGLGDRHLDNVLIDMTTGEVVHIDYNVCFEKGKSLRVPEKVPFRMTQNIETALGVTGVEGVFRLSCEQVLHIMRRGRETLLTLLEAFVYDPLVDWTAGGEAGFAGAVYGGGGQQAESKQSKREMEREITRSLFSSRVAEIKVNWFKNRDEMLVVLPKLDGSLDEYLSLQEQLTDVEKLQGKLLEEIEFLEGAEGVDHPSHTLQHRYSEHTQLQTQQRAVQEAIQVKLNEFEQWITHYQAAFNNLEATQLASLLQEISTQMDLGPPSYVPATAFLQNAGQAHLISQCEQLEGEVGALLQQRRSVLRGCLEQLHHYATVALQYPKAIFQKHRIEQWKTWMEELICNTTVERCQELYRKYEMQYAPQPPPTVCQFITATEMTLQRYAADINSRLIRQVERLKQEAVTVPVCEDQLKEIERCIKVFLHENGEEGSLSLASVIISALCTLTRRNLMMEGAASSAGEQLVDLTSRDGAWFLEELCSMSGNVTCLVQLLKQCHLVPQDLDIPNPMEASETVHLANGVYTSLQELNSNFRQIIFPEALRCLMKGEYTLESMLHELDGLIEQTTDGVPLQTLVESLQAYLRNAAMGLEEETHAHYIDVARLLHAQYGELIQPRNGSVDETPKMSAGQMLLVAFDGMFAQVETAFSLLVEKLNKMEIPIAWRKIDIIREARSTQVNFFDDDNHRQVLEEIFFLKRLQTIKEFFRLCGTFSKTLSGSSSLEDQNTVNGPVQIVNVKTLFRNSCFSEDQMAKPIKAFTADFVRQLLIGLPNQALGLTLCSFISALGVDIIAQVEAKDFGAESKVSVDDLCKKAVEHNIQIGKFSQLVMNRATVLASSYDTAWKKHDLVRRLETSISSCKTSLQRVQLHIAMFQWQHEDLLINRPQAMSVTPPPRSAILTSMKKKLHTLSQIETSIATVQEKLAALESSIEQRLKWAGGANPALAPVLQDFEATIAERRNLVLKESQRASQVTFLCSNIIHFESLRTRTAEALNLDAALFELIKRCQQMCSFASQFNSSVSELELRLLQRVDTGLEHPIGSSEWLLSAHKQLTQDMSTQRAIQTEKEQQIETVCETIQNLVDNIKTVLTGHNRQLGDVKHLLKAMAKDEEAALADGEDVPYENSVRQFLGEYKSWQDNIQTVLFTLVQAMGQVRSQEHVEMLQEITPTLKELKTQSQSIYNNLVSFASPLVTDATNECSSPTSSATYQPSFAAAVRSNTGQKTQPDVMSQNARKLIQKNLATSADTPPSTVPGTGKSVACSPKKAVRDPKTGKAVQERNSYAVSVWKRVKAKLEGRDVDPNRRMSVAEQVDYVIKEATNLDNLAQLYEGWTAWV
Source text: as §1

[13] = target: cellular kinases of SH-SY5Y cells (Homo sapiens, UniProt Q8TBX8); details: 2µM, SH-SY5Y cells, Labeling Site ATP, read-out: KiNativ in-cell binding, % Inhibition, PIP4K2C
Sequence of cellular kinases of SH-SY5Y cells (Homo sapiens, UniProt Q8TBX8) (Q8TBX8 whole entry): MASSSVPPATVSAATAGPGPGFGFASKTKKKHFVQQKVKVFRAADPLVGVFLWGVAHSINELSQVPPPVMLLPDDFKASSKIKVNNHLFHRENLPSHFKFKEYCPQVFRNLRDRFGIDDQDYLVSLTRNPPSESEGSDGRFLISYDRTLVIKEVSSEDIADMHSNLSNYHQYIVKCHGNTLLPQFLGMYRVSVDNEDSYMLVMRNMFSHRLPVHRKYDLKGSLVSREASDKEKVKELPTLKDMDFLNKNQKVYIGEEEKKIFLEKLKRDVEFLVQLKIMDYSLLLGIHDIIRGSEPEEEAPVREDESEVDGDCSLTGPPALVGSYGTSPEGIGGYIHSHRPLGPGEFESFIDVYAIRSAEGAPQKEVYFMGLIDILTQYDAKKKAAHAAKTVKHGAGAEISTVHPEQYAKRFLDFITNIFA
Source text: as §1

[14] = target: T5, cellular kinases of SH-SY5Y cells (Homo sapiens, UniProt Q9Y6E0); details: 2µM; SH-SY5Y cells; Labeling Site Lys2; DIKAANVLLSEHGEVK; read-out: KiNativ in-cell binding, % Inhibition, STK24/MST3
T5 construct: endogenous in cells; host or cells: SH-SY5Y
Source text: as §1

[15] = target: T6, cellular kinases of SH-SY5Y cells (Homo sapiens, UniProt Q6PHR2); details: 2µM; SH-SY5Y cells; labeling site Lys1; peptide EVVAIKCVAK
T6 construct: endogenous in cells; host or cells: SH-SY5Y
Source text: as §1

[16] = target: T7, cellular kinases of SH-SY5Y cells (Homo sapiens, UniProt O14733); details: 2µM; SH-SY5Y cells; labeling site Lys2; peptide DVKPSNILLDER
T7 construct: endogenous in cells; host or cells: SH-SY5Y
Source text: as §1

[17] = target: cellular kinases of SH-SY5Y cells (Homo sapiens, UniProt Q9Y6M4); details: 2µM; SH-SY5Y cells; Labeling Site Lys2; DVKPENFLIGRPGNK; read-out: KiNativ in-cell binding, % Inhibition, CSNK1G3
Source text: as §1

[18] = target: cellular kinases of SH-SY5Y cells (Homo sapiens, UniProt P51812); details: 2µM; SH-SY5Y cells; Labeling Site Lys2; DLKPSNILYVDESGNPESIR; read-out: KiNativ in-cell binding, % Inhibition, RPS6KA3/RSK2 domain2
Source text: as §1

[19] = target: T8, cellular kinases of SH-SY5Y cells (Homo sapiens, UniProt Q13233); details: 2µM; SH-SY5Y cells; Labeling Site Lys2; DVKGANLLIDSTGQR; read-out: KiNativ in-cell binding, % Inhibition, MAP3K1
T8 construct: endogenous in cells; host or cells: SH-SY5Y
Source text: as §1

[20] = target: cellular kinases of SH-SY5Y cells (Homo sapiens, UniProt Q13557); details: 2µM; SH-SY5Y cells; Labeling Site Lys1; IPTGQEYAAKIINTKK; read-out: KiNativ in-cell binding, % Inhibition, CaMK2d
Source text: as §1

Cc1cccc(-c2nc(Nc3ccc4ncsc4c3)c3ccccc3n2)n1 [NK140] was tested, and the inhibition at 2 µM [1] was 18.5%, the “KiNativ in-cell binding, MAP3K11” value [2] was -55.2 and the inhibition at 2 µM [3] was 18.4%. It also gave an inhibition at 2 µM [4] of -3%, an inhibition at 2 µM [5] of -36% and an inhibition at 2 µM [6] of 8.7%. For the same compound, the inhibition at 2 µM [7] was 27.6%, the inhibition at 2 µM ([8]; Labeling Site Activation Loop, KVPFAWCAPESLK) was -3.4% and the inhibition at 2 µM ([8]; Labeling Site Lys1, TVSVAVKCLKPDVLSQPEAMDDFIR) was 12.9%. It also gave an inhibition at 2 µM ([9]; Labeling Site Lys1, EVAIKIIDKTQLNPSSLQK) of 7.2%, an inhibition at 2 µM ([9]; Labeling Site Lys2, DLKAENLLLDAEANIK) of 11.5% and an inhibition at 2 µM [10] of -42.2%. The inhibition at 2 µM [11] was 34.5%, the inhibition at 2 µM ([12]; DTVTIHSVGGTITILPTKTKPK) was 11.2% and the inhibition at 2 µM ([12]; SYPYLFKGLEDLHLDER) was 43.7%. The inhibition at 2 µM ([13]; TLVIKEVSSEDIADMHSNLSNYHQYIVK) was -7%, the inhibition at 2 µM ([13]; VKELPTLKDMDFLNK) was 7.2% and the inhibition at 2 µM [14] was 28.7%. The “KiNativ in-cell binding, ULK3” value [15] was -25.0, the “KiNativ in-cell binding, MAP2K7” value [16] was -84.9 and the inhibition at 2 µM [17] was -29%. For the same compound, the inhibition at 2 µM [18] was -54.8%, the inhibition at 2 µM [19] was -7.7% and the inhibition at 2 µM [20] was 30.5%.

— article PMC9851200, “Multiparameter phenotypic screening for endogenous TFEB and TFE3 translocation identifies novel chemical series modulating lysosome function” (Autophagy, 2022)
